Our source for the TGI values is PubChem BioAssay (NCI).

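These data come from cells grown in 96-well plates and exposed to compound for 48 hours at five concentrations. TGI marks complete inhibition of growth.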 Where a SMILES comes first, the peptide text is derived from it. [ ]: non-standard residue; d: D form. The star is where a group is joined. ξ: configuration not given here. ξNMeF = CNC(Cc1ccccc1)C(=O)O; NMeV = CN[C@H](C(=O)O)C(C)C; Boc = CC(C)(C)OC(=O)*; OBn = c1ccc(CO*)cc1

Among the test systems are HL-60(TB) leukemia; CCRF-CEM leukemia; RPMI-8226 leukemia; NCI-H460 lung; HCT-15 colon; SNB-75 CNS; OVCAR-4 ovarian; OVCAR-3 ovarian; A549 NSCLC; LOX IMVI melanoma; ACHN renal; K-562 leukemia; HOP-62 NSCLC; 786-0 renal; NCI-H226 lung; SF-268 CNS; NCI-H23 lung; A498 renal; BT-549 breast.
Holding throughout (assay): DTP human tumour cell line panel, 48 h

For `CC(C)[C@@H](C(=O)N(C)[C@H](C(=O)N1CCC[C@H]1C(=O)OCc1ccccc1)C(C)C)N(C)C(=O)C(Cc1ccccc1)N(C)C(=O)[C@H](NC(=O)OC(C)(C)C)C(C)C` (stereo not given in full) (Boc-[dV][ξNMeF][NMeV][NMeV]P-OBn), the TGI in the assay with HL-60(TB) leukemia is over 31.6 µM; in the assay on CCRF-CEM leukemia, over 31.6 µM; in the assay on RPMI-8226 leukemia, over 31.6 µM; with NCI-H460 lung, over 31.6 µM; in the assay with HCT-15 colon it was over 31.6 µM; in the assay on SNB-75 CNS, over 100 µM. The TGI is over 100 µM with OVCAR-4 ovarian; over 67.2 µM with OVCAR-3 ovarian; over 31.6 µM in the assay with A549 NSCLC; over 31.6 µM in the assay with LOX IMVI melanoma; over 100 µM with ACHN renal; over 31.6 µM with K-562 leukemia. Moreover, the TGI was over 31.6 µM in the assay with HOP-62 NSCLC; over 69.7 µM with 786-0 renal; over 100 µM with NCI-H226 lung; over 31.6 µM in the assay on SF-268 CNS; over 100 µM in the assay on NCI-H23 lung; over 31.6 µM in the assay with A498 renal.

Turning to `C[N+](C)(C)CC(=O)N/N=C(\Cc1nc2ccc([N+](=O)[O-])cc2[nH]c1=O)C(=O)Nc1nc2ccc([N+](=O)[O-])cc2s1`, the TGI is 94.3 µM in the assay on BT-549 breast; over 100 µM with HL-60(TB) leukemia; over 100 µM with CCRF-CEM leukemia; over 100 µM with RPMI-8226 leukemia; over 100 µM in the assay with NCI-H460 lung; over 100 µM in the assay on HCT-15 colon. Moreover, the TGI with SNB-75 CNS, in the assay with OVCAR-4 ovarian, with OVCAR-3 ovarian, in the assay with A549 NSCLC, in the assay on LOX IMVI melanoma and in the assay with ACHN renal was over 100 µM in each case. Moreover, the TGI in the assay on K-562 leukemia, in the assay on HOP-62 NSCLC, with 786-0 renal, in the assay with NCI-H226 lung, in the assay on SF-268 CNS and in the assay on NCI-H23 lung was over 100 µM in each case. The same molecule came in with a TGI in the assay with A498 renal of over 100 µM.

As for `CCOC(=O)CN1C(=O)NC(C)(c2ccccc2)C1=O` (stereo not given), the TGI in the assay with BT-549 breast, in the assay on CCRF-CEM leukemia, in the assay with RPMI-8226 leukemia, in the assay with HCT-15 colon, in the assay on SNB-75 CNS and in the assay on OVCAR-4 ovarian was over 100 µM in each case. Besides, the TGI with OVCAR-3 ovarian, with A549 NSCLC, in the assay with LOX IMVI melanoma, with ACHN renal, in the assay with K-562 leukemia and in the assay on HOP-62 NSCLC was over 100 µM throughout. In addition, the TGI in the assay with 786-0 renal, in the assay with SF-268 CNS, in the assay with NCI-H23 lung and in the assay with A498 renal was over 100 µM in each case.

Consider `O=C1c2ccccc2C(=O)N1CCCOCc1c[nH]c(=O)[nH]c1=O`, for which the TGI with HL-60(TB) leukemia, with CCRF-CEM leukemia, in the assay with RPMI-8226 leukemia, in the assay on NCI-H460 lung, in the assay on HCT-15 colon and in the assay on SNB-75 CNS was over 100 µM in each case. The TGI with OVCAR-4 ovarian, in the assay on OVCAR-3 ovarian, in the assay with A549 NSCLC, in the assay on LOX IMVI melanoma, in the assay with ACHN renal and in the assay on K-562 leukemia was over 100 µM throughout. Moreover, the TGI in the assay on HOP-62 NSCLC, with 786-0 renal, in the assay on NCI-H226 lung, in the assay with SF-268 CNS, in the assay on NCI-H23 lung and in the assay with A498 renal was over 100 µM each time.

Consider `CN(c1ccccc1)c1cc2ccccc2nn1`, for which the TGI in the assay on HL-60(TB) leukemia, in the assay with CCRF-CEM leukemia, in the assay on RPMI-8226 leukemia, in the assay on NCI-H460 lung, in the assay on HCT-15 colon and in the assay on SNB-75 CNS was over 100 µM in each case. In addition, the TGI with OVCAR-4 ovarian, in the assay with OVCAR-3 ovarian, with A549 NSCLC, in the assay with LOX IMVI melanoma, in the assay on ACHN renal and in the assay with K-562 leukemia was over 100 µM in each case. Besides, the TGI with HOP-62 NSCLC, with 786-0 renal, in the assay on NCI-H226 lung, in the assay on SF-268 CNS, with NCI-H23 lung and with A498 renal was over 100 µM each time.

Consider `C/C=C/c1cc2c(cc1O)CC[C@@H]1[C@@H]2CC[C@]2(C)[C@@H](O)CC[C@@H]12`, for which the TGI is 22.8 µM in the assay with BT-549 breast; 8.44 µM in the assay on CCRF-CEM leukemia; over 82.6 µM in the assay on RPMI-8226 leukemia; 14.3 µM with NCI-H460 lung; 18 µM in the assay with HCT-15 colon; 3.48 µM in the assay on SNB-75 CNS. The TGI in the assay on OVCAR-4 ovarian is 27.2 µM; in the assay with OVCAR-3 ovarian, 2.24 µM; in the assay with A549 NSCLC, 15.9 µM; in the assay with LOX IMVI melanoma, 24.3 µM; in the assay on ACHN renal it was 15.5 µM; in the assay on K-562 leukemia it was 15.7 µM. Moreover, the TGI in the assay on HOP-62 NSCLC was found to be 16.3 µM; in the assay on 786-0 renal it was 13.8 µM; with NCI-H226 lung, 1.96 µM; in the assay with SF-268 CNS, 21.5 µM; in the assay on NCI-H23 lung it was 4.62 µM; in the assay on A498 renal, 6.11 µM.

Regarding `COc1cccc(NC(=O)CSc2nnc(Cc3ccccc3)o2)c1`, the TGI in the assay with HL-60(TB) leukemia, in the assay on CCRF-CEM leukemia, with RPMI-8226 leukemia, in the assay on NCI-H460 lung, with HCT-15 colon and in the assay on SNB-75 CNS was over 100 µM throughout. Further, the TGI is over 100 µM in the assay on OVCAR-4 ovarian; over 100 µM in the assay on OVCAR-3 ovarian; over 100 µM in the assay with A549 NSCLC; over 100 µM in the assay with LOX IMVI melanoma; 63.6 µM in the assay on ACHN renal; over 100 µM with K-562 leukemia. In addition, the TGI with HOP-62 NSCLC, in the assay on 786-0 renal, in the assay with NCI-H226 lung, in the assay on SF-268 CNS, in the assay with NCI-H23 lung and in the assay with A498 renal was over 100 µM throughout.
